For 20 compounds, Emax and EC50 results are on record in patent publication US20230061736A1, “GPR119 AGONISTS” (Kallyope, Inc., priority 2019, published 2023).

The target in this test is T1, human GPR119 (hGPR119) (Homo sapiens, UniProt Q8TDV5).
T1 construct: expressed in transfected cells
T1 sequence (Q8TDV5 1-335): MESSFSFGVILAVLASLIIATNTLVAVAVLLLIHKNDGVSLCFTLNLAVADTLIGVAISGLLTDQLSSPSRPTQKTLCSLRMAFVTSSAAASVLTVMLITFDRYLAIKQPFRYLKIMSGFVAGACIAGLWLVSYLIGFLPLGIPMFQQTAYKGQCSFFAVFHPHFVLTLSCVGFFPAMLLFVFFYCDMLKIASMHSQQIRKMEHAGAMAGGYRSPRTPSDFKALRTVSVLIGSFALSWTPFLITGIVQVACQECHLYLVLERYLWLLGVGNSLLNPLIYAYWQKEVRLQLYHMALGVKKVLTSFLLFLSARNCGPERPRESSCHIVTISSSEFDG
As to the kind of experiment: cAMP accumulation assay (cAMP Gs dynamic HTRF kit). In kind it is cell-based. The conditions noted are these: CHO-K1 cells stably expressing hGPR119, 4-parameter fit; for Emax: 1 h, % activity normalized to Max/Min controls; for pEC50: cAMP accumulation. The gist of the method: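 CHO-K1 cells stably expressing hGPR119, used as assay-ready frozen stocks at ~10,000 cells/well, exposed to compound dose-response in stimulation buffer with Tween 80 for 60 min at 37° C. cAMP read by HTRF (665/620 nm ratio), normalised to Max/Min controls; EC50 and Max activity from 4-parameter fit.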
On the technique in general: Cyclic AMP is a second messenger, typically raised through Gs and lowered through Gi signalling.

By Emax is commonly meant the maximal effect, on the per cent scale that the assay sets. A word on the pEC50: it is the EC50 on a negative log10 scale, so that one unit is a factor of ten. The low end stands for a large EC50, the high end for a small EC50.

SMILES strings stand for the structures. pEC50: −log10 of the molar value. Where a name gives a salt, the structure may show the parent alone.

`O=C(CC1(O)CN(C(=O)Cc2ccc(OCCCC3CCN(c4ncc(Cl)cn4)CC3)cc2F)C1)NCC(CO)(CO)CO` [Example 184, 2-[1-[2-[4-[3-[1-(5-chloropyrimidin-2-yl)-4-piperidyl]propoxy]-2-fluoro-phenyl]acetyl]-3-hydroxy-azetidin-3-yl]-N-[3-hydroxy-2,2-bis(hydroxymethyl)propyl]acetamide]: the Emax is 100 to 130% and the pEC50 is no less than 7.00.

For `O=C(Cc1ccc(OCCCC2CCN(c3ncc(Cl)cn3)CC2)cc1F)NCCCCCC(=O)N1C[C@H](O)[C@@H](O)C1` [Example 25, 2-[4-[3-[1-(5-chloropyrimidin-2-yl)-4-piperidyl]propoxy]-2-fluoro-phenyl]-N-[6-[(3S,4S)-3,4-dihydroxypyrrolidin-1-yl]-6-oxo-hexyl]acetamide], the Emax was no less than 130% and the pEC50 is 6.00 to 7.00.

In the case of `O=C(Cc1ccc(OCCCC2CCN(c3ncc(Cl)cn3)CC2)cc1F)N1CCC(O)(CNC[C@H](O)[C@H](O)[C@H](O)CO)C1` (stereo partly drawn) [Example 186, 2-[4-[3-[1-(5-chloropyrimidin-2-yl)-4-piperidyl]propoxy]-2-fluoro-phenyl]-1-[3-hydroxy-3-[[[(2S,3S,4R)-2,3,4,5-tetrahydroxypentyl]amino]methyl]pyrrolidin-1-yl]ethanone], the Emax is no less than 130% and the pEC50 was no less than 7.00.

As for `CC(C)OC(=O)N1CCC2(CC1)CC2CCCOc1cc(F)c(CC(=O)N2CC(CNC[C@H](O)[C@@H](O)[C@H](O)[C@H](O)CO)C2)c(F)c1` (stereo partly drawn) [Example 146, isopropyl 2-[3-[3,5-difluoro-4-[2-oxo-2-[3-[[[(2S,3R,4R,5R)-2,3,4,5,6-pentahydroxyhexyl]amino]methyl]azetidin-1-yl]ethyl]phenoxy]propyl]-6-azaspiro[2.5]octane-6-carboxylate], the maximal response (Emax) was 100 to 130% and the pEC50 was 6.00 to 7.00.

`CCCc1cnc(N2CCC(CCCOc3ccc(CC(=O)N4CC(CNCCNC(=O)NC(CO)(CO)CO)C4)c(F)c3)CC2)nc1` [Example 73, 1-(1,3-dihydroxy-2-(hydroxymethyl)propan-2-yl)-3-(2-(((1-(2-(2-fluoro-4-(3-(1-(5-propylpyrimidin-2-yl)piperidin-4-yl)propoxy)phenyl)acetyl)azetidin-3-yl)methyl)amino)ethyl)urea] gave an Emax of 100 to 130% and a pEC50 of 6.00 to 7.00.

Consider `O=C(Cc1ccc(OCCC2CC3(CCN(c4ncc(Cl)cn4)CC3)C2)cc1F)N1CC(CNC[C@H](O)[C@@H](O)[C@H](O)[C@H](O)CO)C1` [Example 104, 2-[4-[2-[7-(5-chloropyrimidin-2-yl)-7-azaspiro[3.5]nonan-2-yl]ethoxy]-2-fluoro-phenyl]-1-[3-[[[(2S,3R,4R,5R)-2,3,4,5,6-pentahydroxyhexyl]amino]methyl]azetidin-1-yl]ethanone], for which the Emax lay in the range of 100 to 130% and the pEC50 was 6.00 to 7.00.

The compound `CCOc1cnc(N2CCC(CCCOc3cc(F)c(CC(=O)N4CC[C@@H](CNC[C@H](O)[C@@H](O)[C@H](O)[C@H](O)CO)C4)c(F)c3)CC2)nc1` [Example 134, 2-[4-[3-[1-(5-ethoxypyrimidin-2-yl)-4-piperidyl]propoxy]-2,6-difluoro-phenyl]-1-[(3S)-3-[[[(2S,3R,4R,5R)-2,3,4,5,6-pentahydroxyhexyl]amino]methyl]pyrrolidin-1-yl]ethanone] had an Emax of 100 to 130% and a pEC50 of no less than 7.00.

`CCCc1cnc(N2CCC(CCCOc3ccc(CC(=O)N4CC(CNC[C@H](O)[C@@H](O)[C@H](O)[C@H](O)CO)C4)c(F)c3)CC2)nc1` [Example 74, 2-(2-fluoro-4-(3-(1-(5-propylpyrimidin-2-yl)piperidin-4-yl)propoxy)phenyl)-1-(3-((((2S,3R,4R,5R)-2,3,4,5,6-pentahydroxyhexyl)amino)methyl)azetidin-1-yl)ethan-1-one]: the Emax was no less than 130% and the pEC50 was 6.00 to 7.00.

The compound `O=C(Cc1ccc(OCCCC2CCN(c3ncc(Cl)cn3)CC2)cc1F)N1CC(CCNC[C@H](O)[C@H](O)[C@H](O)CO)C1` [Example 164, 2-[4-[3-[1-(5-chloropyrimidin-2-yl)-4-piperidyl]propoxy]-2-fluoro-phenyl]-1-[3-[2-[[(2S,3S,4R)-2,3,4,5-tetrahydroxypentyl]amino]ethyl]azetidin-1-yl]ethanone] gave an Emax of 100 to 130% and a negative-log EC50 (pEC50) of no less than 7.00.

Compound `COCC1(CNCC(CO)(CO)CO)CCN(C(=O)Cc2ccc(OCCCC3CCN(c4ncc(Cl)cn4)CC3)cc2F)C1` (centres unmarked) [Example 122, 2-[4-[3-[1-(5-chloropyrimidin-2-yl)-4-piperidyl]propoxy]-2-fluoro-phenyl]-1-[3-[[[3-hydroxy-2,2-bis(hydroxymethyl)propyl]amino]methyl]-3-(methoxymethyl)pyrrolidin-1-yl]ethanone] gave an Emax of 100 to 130% and a pEC50 of no less than 7.00.

The compound `O=C(Cc1ccc(OCC2CC(C3CCN(c4ncc(Cl)cn4)CC3)C2)cc1F)N1CC(CNC[C@H](O)[C@@H](O)[C@H](O)[C@H](O)CO)C1` (stereo partly drawn) [Example 120, 2-[4-[ [3-[1-(5-chloropyrimidin-2-yl)-4-piperidyl]cyclobutyl]methoxy]-2-fluoro-phenyl]-1-[3-[[[(2S,3R,4R,5R)-2,3,4,5,6-pentahydroxyhexyl]amino]methyl]azetidin-1-yl]ethanone] gave a maximum response (Emax) of 100 to 130% and a pEC50 of no less than 7.00.

On to `CCOc1cnc(N2CCC(CCCOc3ccc(CC(=O)N4CC[C@@H](CNCC(O)(CO)CO)C4)c(F)c3)CC2)nc1` [Example 153, 2-[4-[3-[1-(5-ethoxypyrimidin-2-yl)-4-piperidyl]propoxy]-2-fluoro-phenyl]-1-[(3S)-3-[[[2,3-dihydroxy-2-(hydroxymethyl)propyl]amino]methyl]pyrrolidin-1-yl]ethanone], for which the Emax is no less than 130% and the pEC50 is no less than 7.00.

As to `CC(C)OC(=O)N1CCC2(CCC2CCOc2cc(F)c(CC(=O)N3CC(CNC[C@H](O)[C@@H](O)[C@H](O)[C@H](O)CO)C3)c(F)c2)CC1` (stereo partly drawn) [Example 141, isopropyl 3-[2-[3,5-difluoro-4-[2-oxo-2-[3-[[[(2S,3R,4R,5R)-2,3,4,5,6-pentahydroxyhexyl]amino]methyl]azetidin-1-yl]ethyl]phenoxy]ethyl]-7-azaspiro[3.5]nonane-7-carboxylate], the maximal response (Emax) lay within 50 to 100% and the pEC50 was 5.00 to 6.00.

`CCCc1cnc(N2CCC(CCCOc3cc(F)c(CC(=O)N4CC(C(=O)NCCC[N+](C)(C)C)C4)c(F)c3)CC2)nc1` [Example 40, 3-[[1-[2-[2,6-difluoro-4-[3-[1-(5-propylpyrimidin-2-yl)-4-piperidyl]propoxy]phenyl]acetyl]azetidine-3-carbonyl]amino]propyl-trimethyl-ammonium formate] had an Emax of 100 to 130%.

Consider `O=C(CCC1CN(C(=O)Cc2ccc(OCCCC3CCN(c4ncc(Cl)cn4)CC3)cc2F)C1)NCC(O)(CO)CO` [Example 35, 3-[1-[2-[4-[3-[1-(5-chloropyrimidin-2-yl)-4-piperidyl]propoxy]-2-fluoro-phenyl]acetyl]azetidin-3-yl]-N-[2,3-dihydroxy-2-(hydroxymethyl)propyl]propanamide], for which the Emax was no less than 130% and the pEC50 was no less than 7.00.

As to `O=C(Cc1c(F)cc(OCCCC2CCN(c3ncc(Cl)cn3)CC2)cc1F)N1CC[C@@H](CNCC(O)(CO)CO)C1` [Example 150, 2-[4-[3-[1-(5-chloropyrimidin-2-yl)-4-piperidyl]propoxy]-2,6-difluoro-phenyl]-1-[(3S)-3-[[[2,3-dihydroxy-2-(hydroxymethyl)propyl]amino]methyl]pyrrolidin-1-yl]ethanone], the Emax was in the range of 100 to 130% and the pEC50 was no less than 7.00.

In turn, `NS(=O)(=O)CCCCNC(=O)Cc1ccc(OCCCC2CCN(c3ncc(Cl)cn3)CC2)cc1F` [Example 14, 2-[4-[3-[1-(5-chloropyrimidin-2-yl)-4-piperidyl]propoxy]-2-fluoro-phenyl]-N-(4-sulfamoylbutyl)acetamide] had an Emax of no less than 130% and a pEC50 of no less than 7.00.

Turning to `O=C(Cc1ccc(OCCCC2CCN(c3ncc(Cl)cn3)CC2)cc1F)N1CC(CCNC[C@H](O)[C@@H](O)[C@H](O)[C@H](O)CO)C1` [Example 61], the maximum response (Emax) was 100 to 130% and the pEC50 was 6.00 to 7.00.

Consider `CCOc1cnc(N2CCC(CCCOc3ccc(CC(=O)N4CC(CNC[C@H](O)[C@@H](O)[C@H](O)[C@H](O)CO)C4)c(F)c3)CC2)nc1` (racemic) [Example 80, 2-[4-[3-[1-(5-ethoxypyrimidin-2-yl)-4-piperidyl]propoxy]-2-fluoro-phenyl]-1-[3-[[[rac-(2S,3R,4R,5R)-2,3,4,5,6-pentahydroxyhexyl]amino]methyl]azetidin-1-yl]ethanone], for which the Emax is 100 to 130% and the negative logarithm of the EC50 (pEC50) is 6.00 to 7.00.

As for `COCc1cnc(N2CCC(CCCOc3ccc(CC(=O)N4CC(CNCCNC(=O)NC(CO)(CO)CO)C4)c(F)c3)CC2)nc1` [Example 81, 1-[2-[[1-[2-[2-fluoro-4-[3-[1-[5-(methoxymethyl)pyrimidin-2-yl]-4-piperidyl]propoxy]phenyl]acetyl]azetidin-3-yl]methylamino]ethyl]-3-[2-hydroxy-1,1-bis(hydroxymethyl)ethyl]urea], the Emax fell in the range of 100 to 130%.
